# Columns and labels:
# L8 myocytes = assay: [3H]-2-deoxy-D-glucose (dGlc) uptake assay in L8 myocytes; assay type: cell-based
# Protocol: (§1) The time-course of D-xylose effect in two types of skeletal muscle cells (L8 myocytes and C2 myotubes) was studied. L8 myocytes and C2 myotubes preconditioned in 20 mM glucose were incubated with 20 mM xylose. After 90 min the cells were washed and incubated with 20 mM glucose, and subjected to a deoxyglucose dGlc uptake assay (14).
# (§2) It has shown before by the inventors of the present invention that deoxyglucose (dGlc) depresses the hexose transport system in myocytes and that a subsequent incubation with low (even no) glucose fails to reverse this effect of dGlc [Sasson, S et al (1997)]. The inventors have therefore measured the effect of D-xylose on rate of hexose transport following treatment with dGlc. In one experiment, C2 myotubes preconditioned with 2 mM glucose received fresh medium containing 2 mM dGlc. A portion of the cells were washed after 30 min and received 20 MM D-xylose or 2 mM D-glucose, and subjected to a dGlc uptake assay at different time points. In another experiment, L8 myocytes preconditioned with 2 mM glucose were washed and incubated with 2 mM xylose or 2 mM dGlc. A portion of the cells were washed again after 2 hr and incubated with 20 mM xylose, and subjected to a dGlc uptake assay at different time points.
# This conclusion is also supported by the finding of the a better ability of D-xylose than the other pentoses to reverse 2-deoxy-D-glucose-induced downregulation of the hexose transport system in L8 myocytes. L8 myocytes were preconditioned with 2 mM glucose, washed and incubated with 2 mM dGlc. After 30 min a portion of the cells were washed again and incubated with 20 mM xylose, ribose, arabinose or lyxose. Cells were subjected to the dGlc uptake assay at various time points.
# (§3) Uptake assay of the tritiated glucose analogue, 2-deoxy-D-glucose, is routinely performed as described in [Sasson, S. and Cerasi, E. (1986) J. Biol. Chem. 261, 16827-16833].
# C2 myotubes = assay: dGlc uptake assay in C2 myotubes; assay type: cell-based, mouse
# Protocol: as §1
# The inventors have also measured the effect of different doses of D-xylose in C2 myotubes. C2 myotubes preconditioned with 20 mM glucose received fresh medium containing 20 mM glucose or increasing concentrations of D-xylose. Standard dGlc uptake assay was performed after 1 hr incubation. […] D-xylose augmented the rate of hexose transport ˜2-fold within 1-2 hr; half-maximal stimulation was observed within 20-30 min, as shown in FIG. 2.
# However, in the above experiments the cells were exposed to D-xylose after removal of the conditioning glucose concentration. […] The inventors therefore added 20 mM D-xylose to C2 myotubes in the presence of 8 or 16 mM glucose and followed its effect.
# as §2, §3
# [1] = test system: isolated rat soleus muscles; assay: dGlc uptake in isolated soleus muscles; assay type: cell-based; settings: 3 hr, 20 mM glucose with 20 mM xylose (FIG. 9)
# Protocol: FIG. 9: Effect of D-xylose on dGlc uptake in soleus muscles. Soleus muscles were isolated from Sabra male albino rats and incubated for 3 hr with 20 mM glucose in the absence or the presence of 20 mM xylose. The muscles were washed and subjected to dGlc uptake assay without or with insulin (500 nM). Mean±SEM (n=3).
# Some experiments with isolated rat soleus muscles were performed, in order to exclude cell-line specific effects, and to assess the physiologic relevance of the findings of the present invention. Soleus muscles were isolated from Sabra male albino rats and incubated for 3 hr with 20 mM glucose in the absence or the presence of 20 mM xylose. The muscles were washed and subjected to dGlc uptake assay without or with insulin (500 nM).
# The procedure follows that described before in [Sasson et al (1987), Diabetes 36, 1041-46].
# 3T3-L1 adipocytes = assay: Screening of methylated xylose derivatives, dGlc uptake assay (Table 1); assay type: cell-based; settings: Mean±SEM (n=3-6)
# Description: There are five carbon atoms in xylose available for chemical modifications. Each of these atoms was methylated by modifications of published chemical procedures [Bollenback, G. N. (1963) In Methods in carbohydrate chemistry, vol. 2 (Whistler, R. L. and Wolfrom, M. L., eds.), pp. 326-331, Academic Press, New York; Bowering, W. and Timel, T. (1958) Can. J. Chem. 36, 283-285; Levine, P. and Raymomd, A. (1933) J. Biol. Chem. 102, 331-344; Takeo, K. (1992) Carbohyd. Res. 224, 311-318]. All compounds were purified by HPLC and their structure verified by NMR spectroscopy. […] At the end of the incubation period the cells were taken for a standard [^3H]-2-deoxy-D-glucose uptake assay in the absence or the presence of 500 nM insulin (30 min exposure prior to the uptake assay).
# 3T3-L1 adipocytes and L6 myotubes were maintained for 24 hr at 20 mM glucose. Test compounds were added (0.1-20.0 mM) and the cells were incubated further for 2-45 hr. At the end of the incubation periods the cells were washed and taken for a standard [^3H]2-deoxy-D-glucose (dGlc) uptake assay. Uptake values (given for control cells) are in nmol dGlc/mg protein/min. Mean±SEM (n=3-6).
# as §3
# PKB = PKB phosphorylation immunoblot in L6 myotubes; assay type: cell-based, rat; settings: 23.0 mM glucose; 100 nM insulin, 20 mM xylose, 5 mM EH-114 or 250 μM EH-40, up to 24 hrs (FIG. 11B)
# Protocol: FIG. 11B: Effects of insulin D-xylose and xylose derivatives on PKB phosphorylation. L6 myotubes were maintained at 5.5 mM or 23.0 mM glucose. The latter were treated with 100 nM insulin, 20 mM xylose, 5 mM EH-114 or 250 μM EH-40 up to 24 hrs. At the indicated times treated myotubes were collected, homogenized and lysed and the soluble protein fraction was isolated. The control myotubes were collected at the end of the 24 hr incubation period. Equal amounts of proteins of the various treated myotubes were separated on SDS-PAGE and immunoblotted with a specific antibody against phospho-Axt1/PKBα (Ser473). In order to test whether xylose derivative activate insulin transduction elements downstream of PI3K, the inventors tested the state of PKB phosphorylation, as shown in FIG. 11B.
# [2] = 20 mM xylose, cells preconditioned in 20 mM glucose (FIG. 1)
compound,measurement,setting,value
O=C[C@H](O)[C@@H](O)[C@H](O)CO [D-xylose],reversal of 2-deoxy-D-glucose-induced downregulation of the hexose transport system,L8 myocytes; 20 mM pentose after 30 min 2 mM dGlc (FIG. 8),better than any of the other pentoses
same,rate of hexose transport downregulated by dGlc,L8 myocytes; 20 mM xylose after 2 hr 2 mM dGlc (FIG. 4B),increased the rate of hexose transport
same,rate of glucose transport,L8 myocytes; [2],increases the rate of glucose transport
same,time to half-maximal stimulation,C2 myotubes,20 to 30 min
same,rate of hexose transport downregulated by dGlc,C2 myotubes; 20 mM D-xylose after 30 min 2 mM dGlc (FIG. 4A),increased the rate of hexose transport
same,hexose transport in the presence of glucose,C2 myotubes; 20 mM D-xylose with 8 or 16 mM glucose (FIG. 3),augment hexose transport
same,effect of pentoses on the rate of hexose transport,"C2 myotubes; 20 mM pentose, preconditioned with 20 mM glucose (FIG. 7)",most effective pentose
same,rate of glucose transport,C2 myotubes; [2],increases the rate of glucose transport
same,concentration at which maximal effect is obtained,"C2 myotubes; dose-response, 1 hr incubation, preconditioned with 20 mM glucose (FIG. 2)",20 mM
same,augmentation of the rate of hexose transport,C2 myotubes; within 1-2 hr,~2 fold
same,increase of the rate of dGlc uptake,[1],42%
same,HEXOSE UPTAKE (Percent of Control) Without Insulin,"3T3-L1 adipocytes; 3T3-L1 adipocytes 24 hr at 20 mM glucose, test compounds 0.1-20.0 mM, 2-45 hr",189 ± 4% of Control
same,HEXOSE UPTAKE (Percent of Control) With Insulin,"3T3-L1 adipocytes; as E1, 500 nM insulin 30 min prior to uptake assay",158 ± 9% of Control
same,PKB phosphorylation,PKB,failed to induce significant phosphorylation

# From patent publication US7812142B2, “Pentose derivatives as anti-hyperglycemic drugs” (Yissum Research Development Company of the Hebrew …, priority 2002, dated 2010)
